Measured values from US20240390335A1, “PHARMACEUTICAL COMPOSITION CONTAINING BETA-LACTAM COMPOUND AND USE THEREOF” (priority 2021, published 2024).
Read-outs that look alike come from different tables or passages of the source.

Columns and labels:
[1] = test system: Acinetobacter baumannii; experiment: MIC assay of individual compounds (microdilution, CLSI/NCCLS); assay type: cell-based; settings: individual compound, read-out: MIC
Procedure: (§1) Mueller-Hinton broth (MH broth) medium, Trypticase Soy Broth (TSB Broth) medium, purchased from BD Difco, Cockeysville, MD, USA; • 96-well plate: Corning Costar, Cambridge, MA, USA; • Test method: the antibacterial activities were tested by the microdilution method according to the CLSI/NCCLS standard.
(§2) (1) Preparation of the test samples: 4 mg of each sample was taken, and was prepared into a test solution at 1,024 μg/mL with MH broth, and the test solution was diluted two-fold in a 96-well plate to prepare solutions of a series of gradient concentrations, the volume in each well being 90 μL.
(§3) (2) Preparation of a bacteria solution: The test strains were amplified by Trypticase Soy Broth (TSB Broth) according to the CLSI/NCCLS standard.
(§4) (3) Addition of the samples: a bacteria solution with a concentration of 6×10^5 cfu/mL was prepared, and 10 μL of the bacteria solution was pipetted into each well of the 96-well plate. Three parallel experiments were set up for each concentration and the results were averaged. To the negative control group, 10 μL of the bacterial solution and 90 μL MH broth were added.
(§5) (4) Incubation: the 96-well plate was placed in a 37° C. constant-temperature incubator for 18 hours, and the growth of the strains was observed. The drug concentration in the well with no microbial growth was recorded as the MIC.

[2] = test system: Enterobacter cloacae; experiment: as above; assay type: cell-based; settings: individual compound, read-out: MIC
Procedure: as §1, §2, §3, §4, §5

[3] = test system: Escherichia coli; experiment: as above; assay type: cell-based; settings: individual compound, read-out: MIC
Procedure: as §1, §2, §3, §4, §5

[4] = test system: Klebsiella pneumoniae; experiment: as above; assay type: cell-based; settings: Klebsiella pneumoniae, read-out: MIC
Procedure: as §1, §2, §3, §4, §5

[5] = test system: Pseudomonas aeruginosa; experiment: as above; assay type: cell-based; settings: individual compound, read-out: MIC
Procedure: as §1, §2, §3, §4, §5

[6] = test system: Enterobacter cloacae; experiment: Combined in vitro use, checkerboard dilution method; assay type: cell-based; settings: compound of formula (I-1) combined with avibactam; Enterobacter cloacae ATCC 2468
Procedure: (§6) Mueller-Hinton broth (MH broth) medium, Trypticase Soy Broth (TSB Broth) medium, purchased from BD Difco, Cockeysville, MD, USA; • 96-well plate: Corning Costar, Cambridge, MA, USA; • Test method: the checkerboard dilution method was used for determination.
(§7) (1) Preparation of the test samples: 4 mg of each sample was taken and was prepared into a test solution at 2,048 μg/mL with MH broth, and the test solution was diluted two-fold in a 96-well plate to prepare solutions of a series of gradient concentrations.
as §3
(§8) (3) Addition of the samples: 10 μL of the bacteria solution with a concentration of 6×10^5 CFU/mL was pipetted into each well of the 96-well plate. Each well contained the antibacterial drugs (the compound of formula (I-1) and the compound of formula (I-2)) diluted two-fold with broth and the aforementioned lactamase inhibitor or efflux pump inhibitor. […] The samples were mixed thoroughly. Three parallel experiments were set up for each concentration and the results were averaged. To the negative control group, 10 μL of the bacterial solution and 90 μL MH broth were added.
(§9) (4) Incubation: the 96-well plate was placed in a 37° C. constant-temperature incubator for 18 hours, and the growth of the strains was observed.
(§10) (5) Calculation: The in vitro effect of each drug-inhibitor combination was analyzed by calculating the FICI value: FICI=(MIC of drug A in the combination/MIC of drug A alone)+ (MIC of drug B in the combination/MIC of drug B alone).
(§11) In order to ensure the reliability of the data, three repeated tests were conducted on different dates and the results were averaged.

[7] = test system: Escherichia coli; experiment: as above; assay type: cell-based
Procedure: as §6, §7, §3, §8, §9, §10, §11

[8] = test system: Pseudomonas aeruginosa; experiment: as above; assay type: cell-based
Procedure: as §6, §7, §3, §8, §9, §10, §11

[9] = test system: Klebsiella pneumoniae ATCC BAA2146 (NDM-1); experiment: Protective effect on mice systemically infected (survival within 7 days); assay type: in vivo, ICR mice; settings: for Number of animals survived: 5 mice
Procedure: ICR mice (half male and half female) with healthy appearance and a weight of 18 to 22 g were used. The mice were randomly grouped, with 5 mice (either male or female) in each dose group.
To the mice infected intraperitoneally with NDM-1-producing Klebsiella pneumoniae (at a dose of 3.0×10^6 CFU), drugs were administered once through the tail vein at certain doses (see Table 5) at 1 h and 6 h respectively after the infection for a total of two administrations, with the volume of the drugs administered being 10 mL/kg. The survival of the animals in each group was observed within 7 days, and the survival rates of the mice were calculated. The control group was not given any drugs, and given only physiological saline, and the seven-day survival rate of the mice was 0.
The protective effects of the compound of formula (I-1) administered alone and in combination with avibactam on mice systemically infected with Klebsiella pneumoniae ATCC BAA2146 (NDM-1) are shown in Table 5.

[10] = test system: drug-resistant Enterobacteriaceae strains; experiment: Checkerboard combination, summary over Enterobacteriaceae strains; assay type: cell-based; settings: combined with avibactam; all of the 12 drug-resistant Enterobacteriaceae strains tested
Procedure: as §6, §7, §3
as §8, with “To the negative control group, 10 μL of the bacterial solution and 90 μL MH broth were added.” left out
(5) Calculation: The in vitro effect of each drug-inhibitor combination was analyzed by calculating the FICI value: FICI=(MIC of drug A in the combination/MIC of drug A alone)+ (MIC of drug B in the combination/MIC of drug B alone). […]

[11] = individual compound 16 mg/kg i.v. (tail vein) at 1 h and 6 h after infection
[12] = individual compound 32 mg/kg i.v. (tail vein) at 1 h and 6 h after infection

Q: Which results are given for `CC1(C)[C@H](NC(=O)/C(=N\OC2(C(=O)O)CC2)c2csc(N)n2)C(=O)N1OS(=O)(=O)O` [Compound of formula (I-1)]?
A: MIC ([1]; ATCC17978, Acinetobacter baumannii ATCC 17978): 16 µg/mL; MIC ([1]; ATCC19606, Acinetobacter baumannii ATCC 19606): 16 µg/mL; MIC ([1]; Acinetobacter baumannii CCPM(A)-P-101633(CRAB)): 32 µg/mL; MIC ([2]; ATCC2468, Enterobacter cloacae ATCC 2468): 2 µg/mL; MIC ([2]; Enterobacter cloacae CCPM(A)-P-111719): 1 µg/mL; MIC ([3]; ATCC2469, Escherichia coli ATCC 2469): 1 µg/mL; MIC ([3]; Escherichia coli CCPM(A)-P-071301): 2 µg/mL; MIC ([4]; ATCC2146, individual compound, Klebsiella pneumoniae ATCC 2146): 2 µg/mL; MIC ([4]; ATCC700603, individual compound, Klebsiella pneumoniae ATCC 700603): 4 µg/mL; MIC ([4]; individual compound, Klebsiella pneumoniae CCPM(A)-0814R18): 2 µg/mL; MIC ([4]; individual compound, Klebsiella pneumoniae CCPM(A)-0814R33): 2 µg/mL; MIC ([4]; individual compound, Klebsiella pneumoniae CCPM(A)-0817R61): 64 µg/mL; MIC ([4]; individual compound, Klebsiella pneumoniae CCPM(A)-081301): 2 µg/mL; MIC ([4]; individual compound, Klebsiella pneumoniae CCPM(A)-081705): 2 µg/mL; MIC ([4]; individual compound, Klebsiella pneumoniae CCPM(A)-081715): 2 µg/mL; MIC ([4]; individual compound, Klebsiella pneumoniae CCPM(A)-081716): 128 µg/mL; MIC ([4]; individual compound, Klebsiella pneumoniae CCPM(A)-081729): 2 µg/mL; MIC ([5]; Pseudomonas aeruginosa ATCC27853): 16 µg/mL; MIC ([5]; Pseudomonas aeruginosa CCPM(A)-P-091626(CRPA)): 32 µg/mL; MIC ([5]; Pseudomonas aeruginosa PAO1(CCPM(A)-P-09000032)): 16 µg/mL; MIC in combination [6]: 1 µg/mL; MIC in combination ([7]; compound of formula (I-1) combined with avibactam, Escherichia coli ATCC 2469): 0.125 µg/mL; MIC in combination ([7]; compound of formula (I-1) combined with avibactam, Escherichia coli CCPM(A)-P-071301): 0.25 µg/mL; MIC in combination ([7]; compound of formula (I-1) combined with vaborbactam, Escherichia coli CCPM(A)-P-071301): 0.5 µg/mL; reduction of MIC values on combination ([8]; combined with PAβN, Pseudomonas aeruginosa ATCC27853 and PAO1 (CCPM(A)-P-09000032)): eight-fold; reduction of MIC value on combination ([8]; combined with PAβN, Pseudomonas aeruginosa CCPM(A)-P-091626 (CRPA)): four-fold; MIC in combination ([8]; compound of formula (I-1) combined with PAβN, Pseudomonas aeruginosa ATCC27853): 2 µg/mL; MIC in combination ([8]; compound of formula (I-1) combined with PAβN, Pseudomonas aeruginosa CCPM(A)-P-091626(CRPA)): 8 µg/mL; MIC in combination ([8]; compound of formula (I-1) combined with PAβN, Pseudomonas aeruginosa PAO1(CCPM(A)-P-09000032)): 2 µg/mL; MIC in combination ([8]; compound of formula (I-1) combined with berberine, Pseudomonas aeruginosa ATCC27853): 16 µg/mL; MIC in combination ([8]; compound of formula (I-1) combined with berberine, Pseudomonas aeruginosa CCPM(A)-P-091626(CRPA)): 32 µg/mL; MIC in combination ([8]; compound of formula (I-1) combined with berberine, Pseudomonas aeruginosa PAO1(CCPM(A)-P-09000032)): 16 µg/mL; MIC in combination ([8]; compound of formula (I-1) combined with conessine, Pseudomonas aeruginosa PAO1(CCPM(A)-P-09000032)): 16 µg/mL; Survival rate of animals (%) [9, 11]: 20%; Number of animals survived [9, 11]: 1; Survival rate of animals (%) [9, 12]: 60%; Number of animals survived [9, 12]: 3; change of MIC values on combination [10]: significantly reduced
